Read-outs that look alike come from different tables or passages of the source.
Tests used:
[1] = system: genotype A, "Long" strain RSV; assay: RSV-A assay (CPE protection in Hep-2 cells, ATPlite readout); assay type: cell-based, Human respiratory syncytial virus (HRSV); conditions: genotype A “Long” strain RSV, MOI 0.1, CPE protection, read-out: Human RSV-A (“Long”)
How it was run: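 Protection from RSV-induced cytopathic effect measured by ATP content (ATPlite) after 5-day culture. Infection used genotype A Long virus at MOI 0.1 on 8,000 Hep-2 cells per well, with compound serially diluted 2-fold; values are EC50.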

[2] = system: recombinant HMPV CAN97-83 containing eGFP (MPV-GFP1); assay: HMPV antiviral assay Method-A (MPV-GFP1 eGFP fluorescence in Vero E6 cells); assay type: cell-based, Human metapneumovirus (HMPV); conditions: read-out: HMPV EC50
Description: HMPV antiviral activity was evaluated using a recombinant version of HMPV CAN97-83 engineered to contain the coding sequence for enhanced green fluorescence protein (eGFP) in the 3′ end of the virus genome (MPV-GFP1, ViraTree). Vero E6 cells ([…]) were seeded at a density of 12,000 cells/100 μL/well into 96-well cell plates one day prior to the assay. On the day of screening, the cell culture medium was aspirated from the wells and cells were washed twice with serum-free Eagle's Modified Essential Medium (EMEM, ATCC #) containing 1% penicillin-streptomycin (Invitrogen) (SF-EMEM). Cell washes were performed by dispensing 100 μL SF-EMEM per well and immediately aspirating the wash medium from the well. Following the second wash step, serum-free OptiMEM (Invitrogen, Cat No.) (SF-OptiMEM) containing 0.5 μg/mL TPCK-Trypsin (VENDOR) and 1% penicillin-streptomycin was added to the cells at 50 μL/well. Compounds were added into the 96-well plates using a JANUS automated liquid handling system (VENDOR). Compounds were initially diluted 1:50 into an intermediate 96-well plate containing SF-OptiMEM prior to transfer to the assay plate (25 μL/well). Each of the test compounds were tested in duplicate wells at final concentrations starting from 8 μM or 2 μM using ½ stepwise dilutions for a total of 8 points. Virus infection was performed by preparing a working stock of MPV-GFP1 at a multiplicity of infection (MOI) equal to 0.05/25 μL and aliquoting 25 μL of virus inoculum to the compound and positive control wells. SF-OptiMEM was added (25 μL/well) to the appropriate wells to serve as a virus-free negative control for the assay. The final DMSO concentration of all wells is 0.5%. Plates were incubated at 32° C., 5% CO2 for 5 days.
After 5 days incubation, eGFP fluorescence intensity was measured at (X) […] wavelength using a Spectramax i3× plate reader (VENDOR). Percent viral inhibition was calculated using the following equation: y=[…]
Where XQ is the fluorescence intensity measured in a well containing recombinant MPV-GFP1-infected, compound-treated cells and XP is the average fluorescence intensity measured in the wells containing untreated cells infected with recombinant virus. EC50 values were then calculated by non-linear regression using a four parameter curve logistic equation. The curve fit model employed was XLFit Dose Response One Site Model 200: y=(A+(B/(1+((x/C)^D))))
Where A is the minimum y value, B is the maximum y value, C is the log EC50 value, and D is the slope factor. […] EC50 ranges are as follows: A<0.5 μM; B>0.5 μM.

[3] = human respiratory syncytial virus
[4] = human metapneumovirus, Vero C1008, 120 h

CCc1nc2c(OC)cc(C(=O)NC[C@](O)(c3cc4c(c(-c5ccc(F)cc5)n3)OC[C@]4(C)C(N)=O)C(F)(F)F)cc2s1 [Example 16]
EC50 [1, 3]: < 200 nM | EC50 [2, 4]: < 500 nM

COc1cc(C(=O)NC[C@](O)(c2cc3c(c(-c4ccc(F)cc4)n2)OC[C@]3(C)C(N)=O)C(F)(F)F)cc2sc(C3CC3)nc12 [Example 17]
EC50 [1, 3]: < 200 nM | EC50 [2, 4]: < 500 nM

COc1cc(C(=O)NC[C@](O)(c2cc3c(c(-c4ccc(F)c(Cl)c4)n2)OC[C@]3(C)C(N)=O)C(F)(F)F)cc2sc(C3CC3)nc12 [Example 19]
EC50 [1, 3]: < 200 nM | EC50 [2, 4]: < 500 nM

CCc1nc2c(OC)cc(C(=O)NC[C@](O)(c3cc4c(c(-c5ccc(F)c(Cl)c5)n3)OC[C@]4(C)C(N)=O)C(F)(F)F)cc2s1 [Example 20]
EC50 [1, 3]: < 200 nM | EC50 [2, 4]: < 500 nM

Cn1cc2cc(C(=O)NC[C@](O)(c3cc4c(c(-c5ccc(F)cc5)n3)OC[C@]4(C)C(N)=O)C(F)(F)F)cc(F)c2n1 [Example 22]
EC50 [1, 3]: < 200 nM | EC50 [2, 4]: < 500 nM

COc1cc(C(=O)NC[C@](O)(c2cc3c(c(-c4ccc(F)cc4)n2)OC[C@]3(C)C(N)=O)C(F)(F)F)cc2cn(C3CC3)nc12 [Example 24]
EC50 [1, 3]: < 200 nM | EC50 [2, 4]: < 500 nM

C[C@]1(C(N)=O)COc2c1cc([C@@](O)(CNC(=O)c1cc(F)c3nn(C4CC4)cc3c1)C(F)(F)F)nc2-c1ccc(F)cc1 [Example 25]
EC50 [1, 3]: < 200 nM | EC50 [2, 4]: < 500 nM

C[C@]1(C(N)=O)COc2c1cc([C@@](O)(CNC(=O)c1cc(OC3CC3)c3nn(C4CC4)cc3c1)C(F)(F)F)nc2-c1ccc(F)cc1 [Example 26]
EC50 [1, 3]: < 200 nM | EC50 [2, 4]: < 500 nM

Cn1cc2cc(C(=O)NC[C@](O)(c3cc4c(c(-c5ccc(F)cc5)n3)OC[C@]4(C)C(N)=O)C(F)(F)F)cc(OC3CC3)c2n1 [Example 27]
EC50 [1, 3]: < 200 nM | EC50 [2, 4]: < 500 nM

COc1cc(C(=O)NC[C@](O)(c2cc3c(c(-c4ccc(F)c(Cl)c4)n2)OC[C@]3(C)C(N)=O)C(F)(F)F)cc2cn(C3CC3)nc12 [Example 28]
EC50 [1, 3]: < 200 nM | EC50 [2, 4]: < 500 nM

C[C@]1(C(N)=O)COc2c1cc([C@@](O)(CNC(=O)c1cc(F)c3nn(C4CC4)cc3c1)C(F)(F)F)nc2-c1ccc(F)c(Cl)c1 [Example 29]
EC50 [1, 3]: < 200 nM | EC50 [2, 4]: < 500 nM

C[C@]1(C(N)=O)COc2c1cc([C@@](O)(CNC(=O)c1cc(OC3CC3)c3nn(C4CC4)cc3c1)C(F)(F)F)nc2-c1ccc(F)c(Cl)c1 [Example 30]
EC50 [1, 3]: < 200 nM | EC50 [2, 4]: < 500 nM

COc1cc(C(=O)NC[C@](O)(c2cc3c(c(-c4ccc(F)c(Cl)c4)n2)OC[C@]3(C)C(N)=O)C(F)(F)F)cc2cc(C3CC3)nn12 [Example 32]
EC50 [1, 3]: < 200 nM | EC50 [2, 4]: < 500 nM

C[C@]1(C(N)=O)COc2c1cc([C@@](O)(CNC(=O)c1ccc3c(c1)CN(C1CC1)C3=O)C(F)(F)F)nc2-c1ccc(F)cc1 [Example 34]
EC50 [1, 3]: < 200 nM | EC50 [2, 4]: > 500 nM

COc1cc(C(=O)NC[C@](O)(c2cc3c(c(-c4ccc(F)cc4)n2)OC[C@]3(C)C(N)=O)C(F)(F)F)cc2cn(C(F)F)nc12 [Example 40]
EC50 [1, 3]: < 200 nM | EC50 [2, 4]: < 500 nM

C[C@]1(C(N)=O)COc2c1cc([C@@](O)(CNC(=O)c1ccc3nn(C(F)F)cc3c1)C(F)(F)F)nc2-c1ccc(F)cc1 [Example 41]
EC50 [1, 3]: < 200 nM | EC50 [2, 4]: < 500 nM

C[C@]1(C(N)=O)COc2c1cc([C@@](O)(CNC(=O)c1cc(Cl)c3nn(C(F)F)cc3c1)C(F)(F)F)nc2-c1ccc(F)cc1 [Example 42]
EC50 [1, 3]: < 200 nM | EC50 [2, 4]: < 500 nM

C[C@]1(C(N)=O)COc2c1cc([C@@](O)(CNC(=O)c1cc(F)c3nn(C(F)F)cc3c1)C(F)(F)F)nc2-c1ccc(F)cc1 [Example 43]
EC50 [1, 3]: < 200 nM | EC50 [2, 4]: < 500 nM

C[C@]1(C(N)=O)COc2c1cc([C@@](O)(CNC(=O)c1cc(Cl)c3nn(C(F)F)cc3c1)C(F)(F)F)nc2-c1ccc(F)c(Cl)c1 [Example 44]
EC50 [1, 3]: < 200 nM | EC50 [2, 4]: < 500 nM

C[C@]1(C(N)=O)COc2c1cc([C@@](O)(CNC(=O)c1cc(F)c3nn(C(F)F)cc3c1)C(F)(F)F)nc2-c1ccc(F)c(Cl)c1 [Example 45]
EC50 [1, 3]: < 200 nM | EC50 [2, 4]: < 500 nM

C[C@]1(C(N)=O)COc2c1cc([C@@](O)(CNC(=O)c1cc(C3CC3)c3nn(C(F)F)cc3c1)C(F)(F)F)nc2-c1ccc(F)cc1 [Example 47]
EC50 [1, 3]: < 200 nM | EC50 [2, 4]: < 500 nM

C[C@]1(C(N)=O)COc2c1cc([C@@](O)(CNC(=O)c1cc(C3CC3)c3nn(C(F)F)cc3c1)C(F)(F)F)nc2-c1ccc(F)c(Cl)c1 [Example 48]
EC50 [1, 3]: < 200 nM | EC50 [2, 4]: < 500 nM

COc1cc(C(=O)NC[C@](O)(c2cc3c(c(-c4ccc(F)cc4)n2)OC[C@]3(C)C(N)=O)C(F)(F)F)cn2cc(C(F)(F)F)nc12 [Example 49]
EC50 [1, 3]: < 200 nM | EC50 [2, 4]: > 500 nM

Cc1cn2cc(C(=O)NC[C@](O)(c3cc4c(c(-c5ccc(F)cc5)n3)OC[C@]4(C)C(N)=O)C(F)(F)F)ccc2n1 [Example 50]
EC50 [1, 3]: < 200 nM | EC50 [2, 4]: > 500 nM

C[C@]1(C(N)=O)COc2c1cc([C@@](O)(CNC(=O)c1ccc3nc(C4CC4)cn3c1)C(F)(F)F)nc2-c1ccc(F)cc1 [Example 51]
EC50 [1, 3]: < 200 nM | EC50 [2, 4]: < 500 nM

Cc1cn2cc(C(=O)NC[C@](O)(c3cc4c(c(-c5ccc(F)cc5)n3)OC[C@]4(C)C(N)=O)C3CC3)ccc2n1 [Example 52]
EC50 [1, 3]: < 200 nM | EC50 [2, 4]: < 500 nM

C[C@]1(C(N)=O)COc2c1cc([C@@](O)(CNC(=O)c1ccc3nc(C4CC4)cn3c1)C1CC1)nc2-c1ccc(F)cc1 [Example 53]
EC50 [1, 3]: < 200 nM | EC50 [2, 4]: < 500 nM

C[C@]1(C(N)=O)COc2c1cc([C@@](O)(CNC(=O)c1ccc3nc(C(F)(F)F)cn3c1)C(F)(F)F)nc2-c1ccc(F)cc1 [Example 54]
EC50 [1, 3]: < 200 nM | EC50 [2, 4]: > 500 nM

Cc1cn2cc(C(=O)NC[C@](O)(c3cc4c(c(-c5ccc(F)cc5)n3)OC[C@]4(C)C(N)=O)C(F)(F)F)cc(Cl)c2n1 [Example 55]
EC50 [1, 3]: < 200 nM | EC50 [2, 4]: < 500 nM

C[C@]1(C(N)=O)COc2c1cc([C@@](O)(CNC(=O)c1cc(F)c3nc(C4CC4)cn3c1)C(F)(F)F)nc2-c1ccc(F)cc1 [Example 57]
EC50 [1, 3]: < 200 nM | EC50 [2, 4]: > 500 nM

C[C@]1(C(N)=O)COc2c1cc([C@@](O)(CNC(=O)c1cc(F)c3nc(C4CC4)cn3c1)C(F)(F)F)nc2-c1ccc(F)c(Cl)c1 [Example 58]
EC50 [1, 3]: < 200 nM | EC50 [2, 4]: < 500 nM

COc1cc(C(=O)NC[C@](O)(c2cc3c(c(-c4ccc(F)c(Cl)c4)n2)OC[C@]3(C)C(N)=O)C(F)(F)F)cn2cc(C3CC3)nc12 [Example 59]
EC50 [1, 3]: < 200 nM | EC50 [2, 4]: < 500 nM

C[C@]1(C(N)=O)COc2c1cc([C@@](O)(CNC(=O)c1ccc3nc(C4CC4)cn3c1)C(F)(F)F)nc2-c1ccc(F)c(Cl)c1 [Example 60]
EC50 [1, 3]: < 200 nM | EC50 [2, 4]: < 500 nM

COc1cc(C(=O)NC[C@](O)(c2cc3c(c(-c4ccc(F)cc4)n2)OC[C@]3(C)C(N)=O)C(F)(F)F)cn2cc(CF)nc12 [Example 62]
EC50 [1, 3]: < 200 nM | EC50 [2, 4]: > 500 nM

C[C@]1(C(N)=O)COc2c1cc([C@@](O)(CNC(=O)c1cc(F)c3nc(CF)cn3c1)C(F)(F)F)nc2-c1ccc(F)cc1 [Example 63]
EC50 [1, 3]: < 200 nM | EC50 [2, 4]: > 500 nM

COc1cc(C(=O)NC[C@](O)(c2cc3c(c(-c4ccc(F)cc4)n2)OC[C@]3(C)C(N)=O)C(F)(F)F)cn2cc(C(F)F)nc12 [Example 64]
EC50 [1, 3]: < 200 nM | EC50 [2, 4]: > 500 nM

COc1cc(C(=O)NC[C@](O)(c2cc3c(c(-c4ccc(F)c(Cl)c4)n2)OC[C@]3(C)C(N)=O)C(F)(F)F)cn2cc(C(F)F)nc12 [Example 65]
EC50 [1, 3]: < 200 nM | EC50 [2, 4]: > 500 nM

CC1(C(N)=O)COc2c1cc(C(O)(CNC(=O)c1cc(OCC(F)F)n3nc(C4CC4)cc3c1)C(F)(F)F)nc2-c1ccc(F)cc1 (stereo not drawn) [Example 68]
EC50 [1]: < 200 nM | EC50 ([2]; Method-A, MPV-GFP1 in Vero E6 cells, eGFP fluorescence after 5 days): < 500 nM

Cc1cnc2c(Cl)cc(C(=O)NC[C@](O)(c3cc4c(c(-c5ccc(F)cc5)n3)OC[C@]4(C)C(N)=O)C(F)(F)F)cc2c1 [Example 70]
EC50 [1, 3]: < 200 nM | EC50 [2, 4]: < 500 nM

— patent US12612412B2, “Antiviral heterocyclic compounds” (Enanta Pharmaceuticals, Inc., priority 2021, dated 2026)
